Converted amounts (≈) assume the structure as drawn. A value given as a limit tells only on which side of the number the result lay.

The conditions of the data set: buffer; pH 7.4; 200.0 µM.
Regarding `O=C(O)c1ccccc1-c1ccccc1C(=O)Nc1nc2ccccc2s1`, the kinetic solubility was more than 56.2 µg/mL.

Regarding `CCN(CC)c1c([N+](=O)[O-])c(=O)n(CC)c2ccccc12`, the kinetic solubility was 32.4 µg/mL (≈ 112 µM).

As to `COc1ccccc1OCCCN1C(=O)C(=O)c2cccc(C)c21`, the solubility (kinetic) is 40.1 µg/mL (≈ 123 µM). The solubility kinetic values of the last two compounds are within 1.5-fold of each other.

Turning to `CCOC(=O)C1CCN(S(=O)(=O)c2c[nH]c(=O)[nH]c2=O)CC1`, the kinetic solubility is more than 49.7 µg/mL.

`CC[N+](CC)(CC#CCO)CC#Cc1ccccc1.[Br-]` returned a solubility (kinetic) of 44.2 µg/mL.

`COc1ccc(-c2cc(C(=O)Nc3ccc(F)cc3F)no2)cc1` registered a kinetic solubility of less than 0.4 µg/mL.

As for `COc1ccc(C(=O)c2ccccc2)c(OCC(=O)NC2CC2)c1`, the solubility (kinetic) came out at 31.5 µg/mL (≈ 96.8 µM).

For the compound `CC(C)OCc1c(C(=O)Nc2nccs2)oc2ccccc12`, the kinetic solubility was found to be 2.6 µg/mL (≈ 8.22 µM).

In turn, `Cc1cc(C)nc(SCCC(=O)Nc2ccccc2Cl)n1` displayed a solubility (kinetic) of more than 48.3 µg/mL.

Regarding `CNC(=S)NCCc1c[nH]c2ccc(OC)cc12`, the solubility (kinetic) was more than 39.5 µg/mL.

With `COc1ccc(C(=O)/C=C/c2ccc(N(C)C)cc2)c(OC)c1`, the solubility (kinetic) worked out at 3.2 µg/mL (≈ 10.3 µM).

Regarding `Cc1cccc(C)c1NC(=O)CNC(=O)c1cnccn1`, the kinetic solubility is more than 42.6 µg/mL.

Take `Cc1nc2ccccc2c(=O)n1-c1cccc(C(F)(F)F)c1`: the kinetic solubility came to 43.6 µg/mL (≈ 143 µM).

`CCOc1ncccc1C(=O)Nc1ccc2c(c1)OCO2` returned a kinetic solubility of 2.7 µg/mL (≈ 9.43 µM).

For `Cc1ccc(S(=O)(=O)NCCC(=O)NC2CCCCCC2)cc1C`, the kinetic solubility is more than 52.9 µg/mL.

In turn, `N#C/C(=C(/O)COC(=O)c1ccc(O)cc1)c1nc2ccccc2[nH]1` displayed a kinetic solubility of 9 µg/mL (≈ 26.8 µM).

`O=C(COC(=O)C1CC1)Nc1ccc(Cl)cn1` returned a kinetic solubility of more than 38.2 µg/mL.

The compound `CC(CN1CCCCC1)OC(=O)c1cccc(F)c1.Cl` (stereo not drawn) yielded a solubility (kinetic) of 42.4 µg/mL.

Compound `CC(C)c1ccc(C(=O)OCC(=O)NC2CCCC2)cc1` showed a kinetic solubility of 11.8 µg/mL (≈ 40.8 µM).

In turn, `Cc1ccccc1C(=O)N1CCC(C(=O)Oc2ccc(C#N)cc2)CC1` yielded a solubility (kinetic) of more than 52.3 µg/mL.

In the case of `O=C(O)CN1C(=O)/C(=C/c2ccccc2Cl)Oc2ccccc21`, the solubility (kinetic) was more than 49.5 µg/mL.

`CSc1ccc(CN2CCCCCC2)cc1` came in with a solubility (kinetic) of 22.1 µg/mL (≈ 93.9 µM).

Take `CCN1CCN(CCC(=O)Nc2ccccc2C)CC1`: the solubility (kinetic) is more than 41.3 µg/mL.

`O=C(COC(=O)c1ccc2ncsc2c1)Nc1ccc(OC(F)(F)F)cc1` came in with a solubility (kinetic) of 4.4 µg/mL (≈ 11.1 µM).

`Cc1cc(=O)oc2cc(NC(=O)c3ccc(OC(F)F)cc3)ccc12` had a kinetic solubility of 1 µg/mL (≈ 2.9 µM).

In turn, `CCOc1ccc(NC(=O)CN2C(=O)COc3ccccc32)cc1` returned a solubility (kinetic) of 5.1 µg/mL (≈ 15.6 µM).

For the compound `Cc1ccccc1Sc1ccc(N)cn1`, the kinetic solubility came to 31.4 µg/mL (≈ 145 µM). Compared with the last compound, the solubility kinetic is about 6.2-fold higher.

Consider `O=C(Cc1cccs1)N1CCN=C1SCc1ccc(F)cc1`, for which the kinetic solubility worked out at 26 µg/mL (≈ 77.7 µM).

In turn, `O=C(COC(=O)c1ccc2ncsc2c1)Nc1ccccc1Cl` came in with a kinetic solubility of 4 µg/mL (≈ 11.5 µM).

`Cc1cccc(CC(=O)NC2CCCCCC2)c1`: the solubility (kinetic) was found to be 30.5 µg/mL (≈ 124 µM).

Compound `CCCNC(=O)CSc1nccn1Cc1ccc(OC)cc1` displayed a solubility (kinetic) of more than 47.9 µg/mL.

For the compound `CCOc1ccc(OCc2ccc(C(=O)NC(C)C)o2)cc1`, the kinetic solubility amounted to 13.3 µg/mL (≈ 43.8 µM).

Turning to `O=C(N/N=C/c1ccccc1Br)C1CC1`, the solubility (kinetic) was more than 40.1 µg/mL.

With `O=C(NCC(=O)N1CCN(S(=O)(=O)c2ccc3c(c2)OCCO3)CC1)c1ccccc1F`, the solubility (kinetic) is 10.2 µg/mL (≈ 22 µM).

Compound `CN(C)CC/C=C1/c2cc(F)ccc2Sc2ccc(Cl)cc21.Cl` returned a solubility (kinetic) of 32.8 µg/mL.

`Cc1ccc(C(=O)Nc2ccc(OCc3ccccc3)cc2)s1` gave a kinetic solubility of 3.8 µg/mL (≈ 11.7 µM).

Compound `COC(=O)c1sc(N2CCCCC2)c(C#N)c1N` displayed a solubility (kinetic) of 2.2 µg/mL (≈ 8.29 µM).

With `COc1ccccc1Sc1nc(-c2ccccc2)ncc1OC`, the kinetic solubility amounted to 1.1 µg/mL (≈ 3.39 µM). This solubility kinetic lies about 2-fold lower than the previous one.

Turning to `NC(=O)c1ccc[n+](CC(=O)c2ccc(Br)cc2)c1.[Br-]`, the solubility (kinetic) is more than 60 µg/mL.

As to `CNC(=O)C(=O)Nc1cc2c3c(c1)C(C)C(=O)N3CCC2` (stereo not drawn), the kinetic solubility was more than 43.1 µg/mL.

In turn, `COc1cc(C(=O)N2C[C@H]3C[C@@H](C2)c2cccc(=O)n2C3)cc(OC)c1OC` yielded a solubility (kinetic) of more than 57.7 µg/mL.

In turn, `O=c1cc([O-])n(C2CCCCCC2)c(=O)[nH]1.[NH4+]` gave a kinetic solubility of 30 µg/mL.

Compound `Cc1ccc(NC(=O)Nc2cnccn2)cc1` showed a solubility (kinetic) of 14.4 µg/mL (≈ 63.1 µM).

The compound `COc1ccc2c(c1)c(C)cc[n+]2Cc1ccccc1.[Cl-]` registered a kinetic solubility of 31.9 µg/mL.

For the compound `COc1ccc(OC)c(N2C(=O)CC(NNC(=O)c3ccc4c(c3)OCO4)C2=O)c1` (stereo not drawn), the kinetic solubility was more than 62 µg/mL.

Turning to `COc1ccc(CNC(=O)CN2C(=O)NC(c3ccccc3)(c3ccccc3)C2=O)cc1`, the solubility (kinetic) stood at 4.5 µg/mL (≈ 10.5 µM).

`Cc1cccc(S(=O)(=O)N2CCn3cccc3C2C)c1` (stereo not drawn) gave a kinetic solubility of more than 43.6 µg/mL.

For the compound `Cc1c(C(=O)O)c(=O)n(-c2ccccc2)n1-c1ccccc1`, the solubility (kinetic) is more than 44.1 µg/mL.

As to `O=S1(=O)C=C(SCc2ccc(F)cc2)Nc2ccccc21`, the solubility (kinetic) amounted to 22.5 µg/mL (≈ 70 µM).

In turn, `C#CCNC(=O)c1cc2sccc2n1C` yielded a solubility (kinetic) of 30.6 µg/mL (≈ 140 µM). The solubility kinetic values of the last two compounds are within 1.5-fold of each other.

For the compound `Cc1ccc(NC(=O)c2cccnc2C(=O)Nc2ccc(C)cc2)cc1`, the kinetic solubility was determined as 1.9 µg/mL (≈ 5.5 µM).

The compound `C[C@H](NC(=O)c1ccc(C(C)(C)C)cc1)C(=O)N1CCN(C/C=C/c2ccccc2)CC1` yielded a solubility (kinetic) of 21.6 µg/mL (≈ 49.8 µM). Compared with the last compound, the solubility kinetic is about 11-fold higher.

In the case of `Cc1onc(-c2ccc(Cl)cc2Cl)c1C(=O)/C=C/N(C)C`, the kinetic solubility is more than 48.8 µg/mL.

The compound `COc1cc2c(cc1OC)CN(C(=O)c1ccc(Br)o1)CC2` had a solubility (kinetic) of more than 54.9 µg/mL.

`CCCOc1ccccc1/C=C(\C#N)C(=O)Nc1cccnc1` gave a kinetic solubility of 6.8 µg/mL (≈ 22.1 µM).

With `O=C(O)CC1(CC(=O)NCc2cc(F)cc3c2OCOC3)CCCCC1`, the solubility (kinetic) is more than 54.8 µg/mL.

In the case of `CCn1c(SCc2ccc(F)cc2)nc2ccccc2c1=O`, the solubility (kinetic) is 0.5 µg/mL (≈ 1.59 µM).

Take `CCN(C(=O)c1ccco1)c1nc(-c2ccc(OC)cc2)cs1`: the kinetic solubility was less than 0.4 µg/mL.

Compound `O=c1oc2ccc([N+](=O)[O-])cc2c(N2CCOCC2)c1[N+](=O)[O-]` registered a solubility (kinetic) of more than 48.2 µg/mL.

Take `CN1CCC(=C(c2ccccc2)c2ccc(Br)cc2)CC1.Cl`: the kinetic solubility was 53.1 µg/mL.

`CC(=O)c1c(C)[nH]c(C(=O)Nc2cccc(C)n2)c1C`: the solubility (kinetic) came to 21.4 µg/mL (≈ 78.9 µM).

For the compound `CCN(CC)CCN=Cc1c(O)n(Cc2ccccc2)c(=O)[nH]c1=O`, the kinetic solubility is more than 51.7 µg/mL.

With `Cc1ccc(-c2csc3ncnc(N4CCN(C)CC4)c23)cc1C`, the solubility (kinetic) was 45.7 µg/mL (≈ 135 µM).

In the case of `O=C1CCC/C1=C/Nc1cccc(F)c1`, the solubility (kinetic) turned out to be 23.6 µg/mL (≈ 115 µM).

Take `Cc1ccc(-n2c(=O)[nH]c3c(C(N)=O)nc(C(C)C)nc32)cc1`: the solubility (kinetic) stood at 9.4 µg/mL (≈ 30.2 µM).

On to `CN(Cc1ccccc1)C(=O)CN1C(=O)NC2(CCCC2)C1=O`, for which the kinetic solubility is more than 47.3 µg/mL.

`O=C(COC(=O)c1cccc(Cl)c1Cl)NC1CCCC1` came in with a kinetic solubility of 12.8 µg/mL (≈ 40.5 µM).

`Cc1cc(C(=O)NCc2ccc3c(c2)OCO3)c(C)o1` came in with a solubility (kinetic) of more than 41 µg/mL.

`CCOC(=O)C(=CNc1cscc1S(=O)(=O)C(C)C)C(=O)OCC` came in with a solubility (kinetic) of 38.9 µg/mL (≈ 104 µM).

Consider `CCCCOc1ccc(N2CC(C(=O)NCc3ccco3)CC2=O)cc1` (stereo not drawn), for which the solubility (kinetic) was 12.6 µg/mL (≈ 35.4 µM).

Regarding `COc1ccc(NC(=O)c2cccnc2)cc1`, the solubility (kinetic) is more than 34.2 µg/mL.

In turn, `COC(=O)c1cc(S(=O)(=O)N(C)Cc2ccco2)c[nH]1` gave a solubility (kinetic) of more than 44.7 µg/mL.

Take `COc1ccc(N2C(=O)Cc3ccccc3C2=O)cc1`: the solubility (kinetic) was found to be 39.3 µg/mL (≈ 147 µM).

The values are drawn from PubChem BioAssay AID1996.
